Assay results taken from article PMC4267740, “Unprecedented Therapeutic Potential with a Combination of A2A/NR2B Receptor Antagonists as Observed in the 6-OHDA Lesioned Rat Model of Parkinson's Disease” (PLoS ONE, 2014).
“Also recorded” adds a separate entry of the source. Like-named read-outs stand apart in the source and are kept apart here. Each block holds one compound with its values, some of them ahead of it.

Assays:
[1] = system: unilateral 6-OHDA-lesioned rats; experiment: Distance traveled in actometers, monotherapy (without L-Dopa); type: in vivo, rat
Procedure: To protect norepinephrinergic neurons, animals were administered imipramine HCl (Sigma) 15 minutes before surgery. They were subsequently anesthetized with ketamine (Ceva, 75 mg/kg) and xylazine (Bayer, 10 mg/kg) and placed in stereotaxic frame (David Kopf Instrument). 6-OHDA was injected into the right ascending medial forebrain bundle at the following coordinates (in mm) relative to bregma and surface of the dura, AP = −3.5, ML = −1.5, DV = −8.7. Each rat received one injection of 6-OHDA (4 µg/µl) over a period of 5 minutes (0.5 µl/min) for a total of 10 µg per rat. Animals were monitored for 3 weeks to ensure full recovery and habituation to the environment and experimenters.
On day 21 post surgery, all rats were challenged with a small dose of subcutaneously administered apomorphine (Sigma, 0.05 mg/kg). Rats showing more than 90 contralateral rotations (360°) over a 45-minute recording period were included in the study. […] For each experiment, rats were allocated to the different experimental groups in order to get the same mean level of basal activity measured at the apomorphine challenge amongst the different experimental groups.
Drug-naïve separate rats were tested individually in clear acrylic chambers (LE8811 IR, Panlab). Locomotion was detected and measured by 16 infrared light-beam sensors located on each side of the enclosure at a height of 3 cm. Sensors were spaced such that the light beams formed a matrix of 15×15 squares over the surface. Activity counts were recorded on a computer and Acti-Track software (Actitrack, Panlab) was used to convert raw data into “distance traveled” and “rearing counts” for analysis as relevant dependent variables.
Six different combinations of A2A/NR2B antagonists were tested without L-Dopa. For each combination, there were four different procedures: vehicle only; A2A antagonist followed by vehicle; vehicle followed by the NR2B antagonist and A2A antagonist followed by the NR2B antagonist. The drugs, doses and combinations are described in Table 3. After drug administration, rats were placed in actometers (open-field) for monitoring the general level of motor activity (distance traveled and rearing counts).
(§1) Before undertaking the study, each A2A and NR2B antagonist was tested individually. The doses were selected on the basis of preliminary dose-response curves performed separately for each drug and submaximal dose (i.e. response observed is not at its maximal level) of each drug was selected for the combination studies. The two drugs were administered separately via an intraperitoneal (ip) injection with a 2-minute interval between the two drugs. Five minutes after the second injection, animals were placed in the testing cage for behavioural recording. Due to formulation and exposure issues, Tozadenant and Radiprodil had to be administered orally and therefore recording was started 60 minutes post dosing at this corresponds to maximum plasma concentrations. Eight drug-naïve animals were used for each of the four procedures; 32 in total for each combination. All behavioral experiments were conducted between 8.00 AM and 2.00 PM at the latest. Preliminary pharmacokinetic assays investigated the plasma and brain disposition of selected drugs administered alone or in combination (ie. Tozadenant/Radiprodil, and Sch-58261/Co-101244; 3 animals per group). Tozadenant and Radiprodil were measured in samples obtained 60 minutes after single oral administration at 30 mg/kg. Sch-58261 and Co-101244 were measured in samples collected 90 min after single intraperitoneal administration at 3 mg/kg.
The effects of A2A and NR2B antagonists on the level of motor activity (i.e. distance traveled and rearing counts) were assessed with three-way mixed ANOVA, combining the A2A receptor antagonist (2 levels, vehicle and the A2A drug) and the NR2B antagonist (2 levels, vehicle and the NR2B drug) as between-group factors with the time as within-subjects factor (6 or 9 levels). […]

NR2B = settings: In vitro Binding; cited from earlier work
[2] = Plasma and brain exposure in satellite lesioned rats; type: in vivo, rat; settings: rat, mean ± SD; for concentration at 60 min: po, 30 mg/kg, 60 min after dosing; for concentration at 90 min: ip, 3 mg/kg, 90 min after dosing
Procedure: Satellite lesioned rats (400–450 g) were anesthetized with isoflurane and sacrificed by exsanguination. Blood samples were collected in EDTA centrifuged 10 min at 3000 rpm at 4°C to obtain plasma and stored at −20°C prior the analysis. Brains were perfused by saline collected and immediately stored at −20°C prior the analysis. Brain samples were added to 4 volumes of water before being homogenized. A structural analog compound was added as internal standard to the samples and proteins were crashed using 8 volumes of acetonitrile. Compounds were analyzed on an API5000 mass spectrometer (ABSciex, Framingham, MA, USA.) equipped with a turbo ion spray source and interfaced with an Agilent 1290 Infinity LC system (Agilent Technologies, Waldbroon, Germany). The mass spectrometer was operated in the positive ionization mode with Multiple Reactions Monitoring used to quantify the various analytes (407 to 292 for Tozadenant; 398 to 109 for Radiprodil, 346 to 105 for Sch-58261 and 342 to 100 for Co-101244). A Waters HSS T3 column (2.1×30 mm, 1.8 µm) was used. The mobile phase consisted of 100% water with 0.1% formic acid (phase A) and 100% acetonitrile with 0.1% formic acid (phase B). The flow rate was 1 mL/min. A linear gradient was performed from 0 to 1 min (95 to 30% phase A), a jump to 90% B in 0.01 min, a hold period of 1.29 min at 90% phase B followed by equilibration at the initial condition was applied before the following injection.
as §1

NR2A = system: NR2A; set-up: method as in PMID 19594762; settings: In vitro Binding; cited from earlier work
A1 = target: A1; set-up: method as in PMID 21810444, PMID 9933143, PMID 17236762; settings: in vitro binding; rat or human; cited from earlier work
A2A = target: A2A; set-up: method as in PMID 21810444, PMID 9933143, PMID 17236762; settings: in vitro binding; rat or human; cited from earlier work
[3] = Preladenant 0.1 mg/kg ip, Radiprodil 1 mg/kg ip
[4] = Tozadenant 30 mg/kg po, Radiprodil 3 mg/kg po
[5] = brain, administered alone, oral 30 mg/kg, expressed per g tissue, 3 animals, read-out: Brain concentration
[6] = brain, administered in combination Tozadenant + Radiprodil, both oral 30 mg/kg, expressed per g tissue, 3 animals, read-out: Brain concentration
[7] = plasma, administered alone, oral 30 mg/kg, 3 animals, read-out: Plasma concentration
[8] = plasma, administered in combination Tozadenant + Radiprodil, both oral 30 mg/kg, 3 animals, read-out: Plasma concentration
[9] = Sch-58261 1 mg/kg ip, Co-101244 1 mg/kg ip
[10] = Sch-58261 1 mg/kg ip, Merck 22 1 mg/kg ip

concentration at 60 min [2, 5]: 2630 ± 560 ng/mL | concentration at 60 min [2, 6]: 2590 ± 2480 ng/mL | concentration at 60 min [2, 7]: 4960 ± 850 ng/mL | concentration at 60 min [2, 8]: 5590 ± 2930 ng/mL
Structure (SMILES): O=C(Nc1ccc2[nH]c(=O)oc2c1)C(=O)N1CCC(Cc2ccc(F)cc2)CC1 [Radiprodil]
Distance traveled, drugs main effect, p (three-way mixed ANOVA) [1, 3]: p<0.001 | Distance traveled, drugs × time effect, p (three-way mixed ANOVA) [1, 3]: p<0.001 | Distance traveled, drugs alone vs vehicle, p (Newman-Keuls) [1, 4]: not all drugs when administered alone improved distance traveled; also recorded: Not significant | Distance traveled, drugs main effect, p (three-way mixed ANOVA) [1, 4]: p<0.01 | Distance traveled, drugs × time effect, p (three-way mixed ANOVA) [1, 4]: p<0.001 | IC50 (NR2B): 0.003 to 0.01 µM | IC50 (NR2A): > 10 µM

concentration at 90 min ([2]; brain, administered alone, ip 3 mg/kg, expressed per g tissue, 3 animals (Co-101244 n = 2), read-out: Brain concentration): 246 ± 34.7 ng/mL | concentration at 90 min ([2]; brain, administered in combination Sch-58261+Co-101244, both ip 3 mg/kg, expressed per g tissue, 3 animals, read-out: Brain concentration): 264 ± 38.3 ng/mL | concentration at 90 min ([2]; plasma, administered alone, ip 3 mg/kg, 3 animals (Co-101244 n = 2), read-out: Plasma concentration): 97.2 ± 10.1 ng/mL | concentration at 90 min ([2]; plasma, administered in combination Sch-58261+Co-101244, both ip 3 mg/kg, 3 animals, read-out: Plasma concentration): 112 ± 4.16 ng/mL
Structure (SMILES): Nc1nc2c(cnn2CCc2ccccc2)c2nc(-c3ccco3)nn12 [Sch-58261]
Distance traveled, drugs alone vs vehicle, p (Newman-Keuls) [1, 9]: Both p<0.01 | Distance traveled, drugs main effect, p (three-way mixed ANOVA) [1, 9]: p<0.001 | Distance traveled, drugs × time effect, p (three-way mixed ANOVA) [1, 9]: p<0.001 | Distance traveled, drugs alone vs vehicle, p (Newman-Keuls) [1, 10]: Both p<0.01 | Distance traveled, drugs main effect, p (three-way mixed ANOVA) [1, 10]: p<0.001 | Distance traveled, drugs × time effect, p (three-way mixed ANOVA) [1, 10]: Not significant | Distance traveled, drug alone in comparison to vehicle-treated controls ([1]; drug administered alone): significant increase

concentration at 60 min [2, 5]: 180 ± 40 ng/mL | concentration at 60 min [2, 6]: 110 ± 40 ng/mL | concentration at 60 min [2, 7]: 6050 ± 950 ng/mL | concentration at 60 min [2, 8]: 5040 ± 140 ng/mL
Structure (SMILES): COc1ccc(N2CCOCC2)c2sc(NC(=O)N3CCC(C)(O)CC3)nc12 [Tozadenant]
Distance traveled, drugs alone vs vehicle, p (Newman-Keuls) [1, 4]: not all drugs when administered alone improved distance traveled; also recorded: Not significant | Distance traveled, drugs main effect, p (three-way mixed ANOVA) [1, 4]: p<0.05 | Distance traveled, drugs × time effect, p (three-way mixed ANOVA) [1, 4]: p<0.001 | Ki (A1): 1.32 µM | Ki (A2A): 0.0049 µM
